Source: article PMC10851555, “Safinamide, an inhibitor of monoamine oxidase, modulates the magnitude, gating, and hysteresis of sodium ion current” (BMC Pharmacology & Toxicology, 2024)
Where “and” joins values, the source holds several entries; their conditions need not be identical. Equal entries are not always repeated. Where two headings read alike, the source gives them in different places.

Columns and labels:
[1] = test system: voltage-gated sodium ion (NaV) channels in pituitary GH3 cells; assay: Whole-cell patch-clamp of INa induced by a 30-ms depolarizing pulse (−100 to −10 mV) in GH3 cells; assay type: cell-based, rat; settings: for amplitude of INa(L) / amplitude of INa(T): 1 min after addition; for amplitude of INa(L): control 18 ± 3 pA; for amplitude of INa(T): control 512 ± 23 pA; for EC50: GH3 cells, modified Hill equation
[2] = parameters: method as in PMID 15082032; settings: cited from earlier work
[3] = test system: single NaV channels in GH3 cells; assay: Cell-attached single-channel NaV current recordings in GH3 cells; assay type: cell-based, rat; settings: n = 7
Procedure: The composition of the external or bath solution [4-(2-hydroxyethyl)-1-piperazineethanesulfonic acid (HEPES)-buffered normal Tyrode’s solution] was as follows: 136.5 mM NaCl, 1.8 mM CaCl2, 5.4 mM KCl, 0.53 mM MgCl2, 5.5 mM glucose, and 5.5 mM HEPES–NaOH (pH 7.4). To measure K^+ currents (data not shown), we filled a patch pipette with an internal solution comprising 140 mM KCl, 1 mM MgCl2, 3 mM adenosine 5′-triphosphate disodium salt, 0.1 mM guanosine 5′-triphosphate disodium salt, 0.1 mM ethylene glycol tetraacetic acid, and 5 mM HEPES–KOH buffer (pH 7.2). To record the whole-cell INa, the K^+ in the internal solution was substituted with Cs^+, and the pH of the solution was adjusted to 7.2 by adding cesium hydroxide. In the single-channel experiments performed to record NaV currents, the pipette was filled with a Na^+-rich solution containing 136 mM NaCl, 0.53 mM MgCl2, 5.5 mM glucose, and 5.5 mM HEPES–NaOH (pH 7.2). The bath medium was a K^+-rich solution comprising 130 mM KCl, 10 mM NaCl, 3 mM MgCl2, 6 mM glucose, and 10 mM HEPES-KOH (pH 7.4). The solutions and culture media were generally filtered on the day of use by using sterile Acrodisc Syringe Filters containing a 0.2-μm Supor Membrane (Bio-Check; New Taipei City, Taiwan).
Single-channel NaV currents induced by depolarizing pulses ranging from −100 to −10 mV were measured and subsequently analyzed using pCLAMP 10.7. The opening events of the channels were generally evaluated through multi-Gaussian adjustments of the distribution of amplitude across channels. Functional independence between channels was determined by comparing the observed stationary probabilities with the values calculated based on the binomial law. For dwell-time analyses, only a single channel was used in the patch-clamp experiment.
To elucidate the mechanisms underlying the effects of SAF on the magnitude of INa, we investigated the actions of SAF and SAF plus MGB on single-channel NaV currents. This experiment was performed using the cell-attached configuration of the voltage-clamp test. Test cells were placed in K^+-rich solution, and the recording pipette was filled with Na^+-rich solution. SAF (10 μM) increased channel activity and decelerated current inactivation when the cells were exposed to depolarization stimuli ascending from –100 to –10 mV (rate of 0.1 Hz; Fig. 9A). Furthermore, the addition of MGB (10 μM) in the presence of 10 μM SAF reduced the probability of channel opening. […] Moreover, with the presence of 10 μM SAF, the mean open time of NaV channels was prolonged to […] (n = 7, P < 0.05) msec from a control value of 2.3 ± 0.3 msec (n = 7). […] Consistent with these findings, the mean open time of the NaV channel in the presence of 10 μM SAF (5.9 ± 1.1 ms; n = 7; P < 0.05) was longer than that in the control period (2.3 ± 0.3 ms, n = 7); the subsequent further addition of 10 μM MGB decreased the mean open time to 3.7 ± 0.7 ms (n = 7, P < 0.05) (Fig. 9B). […] MGB added during SAF exposure reversed the SAF-induced increase in NaV channel activity.

C[C@H](NCc1ccc(OCc2cccc(F)c2)cc1)C(N)=O [SAF, (S)-2-((4-((3-fluorobenzyl)oxy)benzyl)amino)propanamide]
amplitude of INa(L) ([1]; 10 μM SAF, n = 8): 54 ± 9 pA | amplitude of INa(T) ([1]; 10 μM SAF, n = 8): 1387 ± 131 pA | time constant of the fast component of INa(T) inactivation ([1]; 30 μM SAF): no evident change | amplitude of INa(L) ([1]; 30 μM SAF, n = 8): 106 ± 17 pA | amplitude of INa(T) ([1]; 30 μM SAF, n = 8): 1991 ± 153 pA | time constant τinact(S), slow component of INa(T) inactivation ([1]; 30 μM SAF, control 5.1 ± 0.7 ms, n = 8): 10.2 ± 1.1 ms | maximal conductance of INa ([1]; 10 mM SAF (so in the source)): increased | sloping factor of the steady-state inactivation curve ([1]; 10 mM SAF (so in the source)): no change | shift of steady-state inactivation curve of INa to the rightward direction ([1]; 10 mM SAF (so in the source), two-step voltage-clamp protocol, n = 7): approximately 14 mV | half-maximal activation voltage of INa(T) (G–V relationship) ([1]; 3 or 10 μM SAF): shifted to more negative potentials | EC50 ([1]; current at beginning of 30-ms pulse −100 to −10 mV, read-out: EC50 for stimulation of transient INa [INa(T)]): 27.1 µM | EC50 ([1]; current at end of 30-ms pulse −100 to −10 mV, read-out: EC50 for stimulation of late INa [INa(L)]): 4.8 µM | amplitude of INa(L) after the removal of SAF ([1]; washout, n = 8): 20 ± 3 pA | amplitude of INa(T) after the removal of SAF ([1]; washout, n = 8): 523 ± 24 pA | maximal plasma concentration ([2]; single 2.5 mg/kg dose, 2.5 mg/kg): approximately 1000 ng/mL and ~3.3 μM | maximal plasma concentration ([2]; single 5.0 mg/kg dose, 5 mg/kg): ~2500 ng/mL and ~8.3 μM | maximal plasma concentration ([2]; single 10.0 mg/kg dose, 10 mg/kg): ~5500 ng/mL and ~18.2 μM | channel activity (open-state probability) of NaV channels ([3]; 10 μM SAF, control 0.027 ± 0.007): 0.091 ± 0.006 | mean open time of the NaV channel ([3]; 10 μM SAF, control 2.3 ± 0.3 ms, second statement (Fig. 9B)): 5.9 ± 1.1 ms | mean open time of NaV channels ([3]; 10 μM SAF, control 2.3 ± 0.3 msec, first statement): 6.5 ± 0.7 ms | amplitude of the single-channel current ([3]; SAF 10 μM, control 2.01 ± 0.35 pA): 2.03 ± 0.37 pA
